The values below come from patent US11753399B2, “Therapeutic compounds” (Gilead Sciences, Inc., priority 2018, dated 2023).

The nature of data set [1]: Test B: Cytotoxicity Assay (same protocol as Test A, uninfected cells). Type of data set: cell-based. As to conditions: human, uninfected MT-4 cells, CellTiter-Glo. As for the experimental part:
MT-4 cells were next mixed with HIV-IIIb at a multiplicity of infection (m.o.i.) of 0.003 for 1 hour, after which time 35 μL of virus/cell mixture (2000 cells) was immediately added to each well containing 40 μL of diluted compound. The plates were then incubated at 37° C. for 5 days. After 5 days of incubation, 25 μl of 2× concentrated CellTiter-Glo Reagent (catalog #G7571, Promega Biosciences, Inc., Madison, Wis.) was added to each well containing MT-4 cells. Cell lysis was carried out by incubating at room temperature for 10 min and then chemiluminescence was read. […] Compound cytotoxicity and the corresponding CC50 values was determined using the same protocol as described in the antiviral assay (Test A) except that uninfected cells were used.
For orientation: Cellular ATP, detected with luciferase, serves as a proxy for viable cell number.

The next data set deals with HIV-IIIb. As to the kind of experiment: Test A: Antiviral Assay in MT4 Cells. The settings on record: Human immunodeficiency virus 1, MT4, 120 h, inhibition of virus-induced cell killing, MT-4 cells, HIV-IIIb, 5 days, values normalized to 100%; for inhibition at 0.01 µM: from dose response curve at 0.01 μM (10 nM), read-out: % inhibition at 0.01 μM; for inhibition at 0.2 µM: from dose response curve at 0.20 μM (200 nM), read-out: % inhibition at 0.20 μM. Type of data set: cell-based, HIV-1. As for the experimental part: MT-4 cells were next mixed with HIV-IIIb at a multiplicity of infection (m.o.i.) of 0.003 for 1 hour, after which time 35 μL of virus/cell mixture (2000 cells) was immediately added to each well containing 40 μL of diluted compound. The plates were then incubated at 37° C. for 5 days. After 5 days of incubation, 25 μl of 2× concentrated CellTiter-Glo Reagent (catalog #G7571, Promega Biosciences, Inc., Madison, Wis.) was added to each well containing MT-4 cells. Cell lysis was carried out by incubating at room temperature for 10 min and then chemiluminescence was read.

In general, CC50 refers to the concentration that lowers cell viability or growth by half. By inhibition is commonly meant how much of the control response was suppressed.

Turning to `CC(C)(C#Cc1ccc(-c2ccc(Cl)c3c(NS(=O)(=O)CC4CC4)nn(CC(F)F)c23)c([C@H](Cc2cc(F)cc(F)c2)NC(=O)Cn2nc(C(F)F)c3c2C(F)(F)[C@@H]2C[C@H]32)n1)S(=O)(=O)C1CC1` [Example 26], the CC50 at 5 days in data set [1] is over 57.1 µM. Besides, in the data set with HIV-IIIb, the inhibition at 0.01 µM stood at 100% and the inhibition at 0.2 µM is 100%.

On to `CC(C)(C#Cc1ccc(-c2ccc(Cl)c3c(NS(=O)(=O)CC4CC4)nn(CC(F)F)c23)c([C@H](Cc2cc(F)cc(F)c2)NC(=O)Cn2nc(C(F)(F)F)c3c2C(F)(F)[C@@H]2C[C@H]32)n1)S(=O)(=O)C1CC1` [Example 27], for which, in data set [1], the 50% cytotoxic concentration (CC50) at 5 days was over 57.1 µM. Further, in the data set on HIV-IIIb, the inhibition at 0.01 µM stood at 100% and the inhibition at 0.2 µM worked out at 100%.

In data set [1], `Cn1nc(Nc2nnc(C3(O)CC3)o2)c2c(Cl)ccc(-c3ccc(C#CC(C)(C)S(=O)(=O)C4CC4)nc3[C@H](Cc3cc(F)cc(F)c3)NC(=O)Cn3nc(C(F)F)c4c3C(F)(F)[C@@H]3C[C@H]43)c21` [Example 28] showed a half-maximal cytotoxic concentration (CC50) at 5 days of 16.5 µM. Also, in the data set with HIV-IIIb, the inhibition at 0.01 µM was 99% and the inhibition at 0.2 µM is 99%.

In data set [1], `CC1(S(=O)(=O)Nc2nn(CC(F)(F)F)c3c(-c4ccc(C#CC(C)(C)S(=O)(=O)C5CC5)nc4[C@H](Cc4cc(F)cc(F)c4)NC(=O)Cn4nc(C(F)(F)F)c5c4C(F)(F)[C@@H]4C[C@H]54)ccc(Cl)c23)CC1` [Example 29] returned a CC50 at 5 days of over 57.1 µM. In the data set with HIV-IIIb, the inhibition at 0.01 µM is 100% and the inhibition at 0.2 µM came out at 100%.

`Cn1nc(Nc2nnc(C(F)F)o2)c2c(Cl)ccc(-c3ccc(C#CC(C)(C)S(=O)(=O)C4CC4)nc3[C@H](Cc3cc(F)cc(F)c3)NC(=O)Cn3nc(C(F)F)c4c3C(F)(F)[C@@H]3C[C@H]43)c21` [Example 30]: the 50% cytotoxic concentration (CC50) at 5 days in data set [1] is over 57.1 µM. In the data set with HIV-IIIb, the inhibition at 0.01 µM was found to be 99% and the inhibition at 0.2 µM was 99%.

In data set [1], `CC1(S(=O)(=O)Nc2nn(CC(F)(F)F)c3c(-c4ccc(C#CC(C)(C)S(=O)(=O)C5CC5)nc4[C@H](Cc4cc(F)cc(F)c4)NC(=O)Cn4nc(C(F)F)c5c4C(F)(F)CCC5(F)F)ccc(Cl)c23)CC1` [Example 31] showed a half-maximal cytotoxic concentration (CC50) at 5 days of over 57.1 µM. Also, in the data set with HIV-IIIb, the inhibition at 0.01 µM came out at 97% and the inhibition at 0.2 µM is 98%.

Turning to `CC1(S(=O)(=O)Nc2nn(CC(F)(F)F)c3c(-c4ccc(C#CC(C)(C)S(=O)(=O)C5(C)CC5)nc4[C@H](Cc4cc(F)cc(F)c4)NC(=O)Cn4nc(C(F)(F)F)c5c4C(F)(F)[C@@H]4C[C@H]54)ccc(Cl)c23)CC1` [Example 32], the cytotoxic concentration (CC50) at 5 days in data set [1] was over 57.1 µM. Also, in the data set on HIV-IIIb, the inhibition at 0.01 µM came to 100% and the inhibition at 0.2 µM came out at 100%.

Molecule `CC(C)(C#Cc1ccc(-c2ccc(Cl)c3c(NS(=O)(=O)C4CC4)nn(CC(F)F)c23)c([C@H](Cc2cc(F)cc(F)c2)NC(=O)Cn2nc(C(F)F)c3c2C(F)(F)CCC3(F)F)n1)S(=O)(=O)C1CC1` [Example 33] displayed a half-maximal cytotoxic concentration (CC50) at 5 days in data set [1] of over 57.1 µM. Also, in the data set on HIV-IIIb, the inhibition at 0.01 µM was found to be 97% and the inhibition at 0.2 µM was found to be 97%.

Regarding `Cn1nc(NS(=O)(=O)C2(C)CC2)c2c(Cl)ccc(-c3ccc(C#CC(C)(C)S(=O)(=O)C4CC4)nc3[C@H](Cc3cc(F)cc(F)c3)NC(=O)Cn3nc(C(F)F)c4c3C(F)(F)CCC4(F)F)c21` [Example 34], the CC50 at 5 days in data set [1] was over 57.1 µM. In addition, in the data set with HIV-IIIb, the inhibition at 0.01 µM was 89% and the inhibition at 0.2 µM stood at 90%.

The molecule `CC(C)(C#Cc1ccc(-c2ccc(Cl)c3c(NS(=O)(=O)C4CC4)nn(CC(F)(F)F)c23)c([C@H](Cc2cc(F)cc(F)c2)NC(=O)Cn2nc(C(F)F)c3c2C(F)(F)[C@@H]2C[C@H]32)n1)S(=O)(=O)C1CC1` [Example 35] yielded a CC50 at 5 days in data set [1] of over 57.1 µM. Besides, in the data set with HIV-IIIb, the inhibition at 0.01 µM is 97% and the inhibition at 0.2 µM was determined as 97%.

In the case of `CC(C)(C#Cc1ccc(-c2ccc(Cl)c3c(NS(=O)(=O)C4CC4)nn(CC(F)(F)F)c23)c([C@H](Cc2cc(F)cc(F)c2)NC(=O)Cn2nc(C(F)(F)F)c3c2C(F)(F)[C@@H]2C[C@H]32)n1)S(=O)(=O)C1CC1` [Example 36], the CC50 at 5 days in data set [1] is over 57.1 µM. Also, in the data set with HIV-IIIb, the inhibition at 0.01 µM stood at 93% and the inhibition at 0.2 µM worked out at 93%.

Molecule `CC1(S(=O)(=O)Nc2nn(CC(F)F)c3c(-c4ccc(C#CC(C)(C)S(=O)(=O)C5CC5)nc4[C@H](Cc4cc(F)cc(F)c4)NC(=O)Cn4nc(C(F)F)c5c4C(F)(F)CCC5(F)F)ccc(Cl)c23)CC1` [Example 37] yielded a 50% cytotoxic concentration (CC50) at 5 days in data set [1] of over 57.1 µM. In the data set on HIV-IIIb, the inhibition at 0.01 µM amounted to 92% and the inhibition at 0.2 µM came to 92%.

Take `Cn1nc(NS(C)(=O)=O)c2c(Cl)ccc(-c3ccc(C#CC(C)(C)S(=O)(=O)C4CC4)nc3[C@H](Cc3cc(F)cc(F)c3)NC(=O)Cn3nc(C(F)F)c4c3C(F)(F)CCC4(F)F)c21` [Example 38]: the half-maximal cytotoxic concentration (CC50) at 5 days in data set [1] is over 57.1 µM. Further, in the data set with HIV-IIIb, the inhibition at 0.01 µM worked out at 93% and the inhibition at 0.2 µM was determined as 93%.

In the case of `Cn1nc(NS(=O)(=O)C2CC2)c2c(Cl)ccc(-c3ccc(C#CC(C)(C)S(=O)(=O)C4CC4)nc3[C@H](Cc3cc(F)cc(F)c3)NC(=O)Cn3nc(C(F)F)c4c3C(F)(F)CCC4(F)F)c21` [Example 39], the CC50 at 5 days in data set [1] was over 57.1 µM. In addition, in the data set on HIV-IIIb, the inhibition at 0.01 µM stood at 99% and the inhibition at 0.2 µM amounted to 99%.

Regarding `Cn1nc(NS(=O)(=O)C2CC2)c2cccc(-c3ccc(C#CC(C)(C)S(=O)(=O)C4CC4)nc3[C@H](Cc3cc(F)cc(F)c3)NC(=O)Cn3nc(C(F)F)c4c3C(F)(F)[C@@H]3C[C@H]43)c21` [Example 40], the cytotoxic concentration (CC50) at 5 days in data set [1] is over 57.1 µM. In the data set with HIV-IIIb, the inhibition at 0.01 µM came out at 84% and the inhibition at 0.2 µM was 84%.

Turning to `CC(C)(C#Cc1ccc(-c2ccc(Cl)c3c(NS(=O)(=O)C4CC4)nn(C4COC4)c23)c([C@H](Cc2cc(F)cc(F)c2)NC(=O)Cn2nc(C(F)F)c3c2C(F)(F)[C@@H]2C[C@H]32)n1)S(=O)(=O)C1CC1` [Example 41], the 50% cytotoxic concentration (CC50) at 5 days in data set [1] was over 57.1 µM. For the same molecule, in the data set on HIV-IIIb, the inhibition at 0.01 µM turned out to be 100% and the inhibition at 0.2 µM amounted to 100%.

`CC(C)(C#Cc1ccc(-c2ccc(Cl)c3c(NS(C)(=O)=O)nn(CC(F)F)c23)c([C@H](Cc2cc(F)cc(F)c2)NC(=O)Cn2nc(C(F)F)c3c2C(F)(F)CCC3(F)F)n1)S(=O)(=O)C1CC1` [Example 42] showed a CC50 at 5 days in data set [1] of over 57.1 µM. Also, in the data set with HIV-IIIb, the inhibition at 0.01 µM is 89% and the inhibition at 0.2 µM stood at 89%.

The molecule `Cn1nc(NS(C)(=O)=O)c2c(Cl)ccc(-c3ccc(C#CC(C)(C)S(=O)(=O)C4CC4)nc3[C@H](Cc3cc(F)cc(F)c3)NC(=O)Cn3nc(C(F)F)cc3C(F)F)c21` [Example 43] showed a CC50 at 5 days in data set [1] of over 57.1 µM. Moreover, in the data set with HIV-IIIb, the inhibition at 0.01 µM is 87% and the inhibition at 0.2 µM was 87%.

For `Cn1nc(NS(C)(=O)=O)c2c(Cl)ccc(-c3ccc(C#CC(C)(C)S(=O)(=O)C4CC4)nc3[C@H](Cc3cc(F)cc(F)c3)NC(=O)Cn3nc(C(F)(F)F)cc3C3CC3)c21` [Example 44], the CC50 at 5 days in data set [1] was over 54.8 µM. Moreover, in the data set on HIV-IIIb, the inhibition at 0.01 µM was 87% and the inhibition at 0.2 µM came to 92%.

For the molecule `Cn1nc(NS(C)(=O)=O)c2c(Cl)ccc(-c3ccc(C#CC(C)(C)S(=O)(=O)C4CC4)nc3[C@H](Cc3cc(F)cc(F)c3)NC(=O)Cn3cnnn3)c21` [Example 45], the 50% cytotoxic concentration (CC50) at 5 days in data set [1] was determined as 20.1 µM. In the data set on HIV-IIIb, the inhibition at 0.01 µM was found to be 96% and the inhibition at 0.2 µM came out at 97%.

`Cn1nc(NS(C)(=O)=O)c2c(Cl)ccc(-c3ccc(C#CC(C)(C)S(=O)(=O)C4CC4)nc3[C@H](Cc3cc(F)cc(F)c3)NC(=O)Cc3nnn[nH]3)c21` [Example 46] came in with a cytotoxic concentration (CC50) at 5 days in data set [1] of over 54.6 µM. Moreover, in the data set on HIV-IIIb, the inhibition at 0.01 µM turned out to be 0% and the inhibition at 0.2 µM was 10%.

As for `Cn1nc(NS(C)(=O)=O)c2c(Cl)ccc(-c3ccc(C#CC(C)(C)S(=O)(=O)C4CC4)nc3[C@H](Cc3cc(F)cc(F)c3)NC(=O)Cn3cnnc3)c21` [Example 47], the CC50 at 5 days in data set [1] was over 57.1 µM. Also, in the data set on HIV-IIIb, the inhibition at 0.01 µM turned out to be 0% and the inhibition at 0.2 µM was found to be 0%.

Turning to `Cn1nc(NS(C)(=O)=O)c2c(Cl)ccc(-c3ccc(C#CC(C)(C)S(=O)(=O)C4CC4)nc3[C@H](Cc3cc(F)cc(F)c3)NC(=O)Cn3ccnn3)c21` [Example 48], the CC50 at 5 days in data set [1] was over 57.1 µM. In the data set on HIV-IIIb, the inhibition at 0.01 µM stood at 0% and the inhibition at 0.2 µM was 0%.

For `Cn1nc(NS(C)(=O)=O)c2c(Cl)ccc(-c3ccc(C#CC(C)(C)S(=O)(=O)C4CC4)nc3[C@H](Cc3cc(F)cc(F)c3)NC(=O)Cn3ccnc3)c21` [Example 49], the CC50 at 5 days in data set [1] is over 57.1 µM. Moreover, in the data set on HIV-IIIb, the inhibition at 0.01 µM amounted to 0% and the inhibition at 0.2 µM worked out at 90%.

Consider `Cn1nc(NS(C)(=O)=O)c2c(Cl)ccc(-c3ccc(C#CC(C)(C)S(=O)(=O)C4CC4)nc3[C@H](Cc3cc(F)cc(F)c3)NC(=O)Cn3cccn3)c21` [Example 50], for which the CC50 at 5 days in data set [1] is over 53.6 µM. In addition, in the data set with HIV-IIIb, the inhibition at 0.01 µM is 0% and the inhibition at 0.2 µM worked out at 36%.
